Laboratory results taken from patent US20060223768A1, “Regulation of gene expression” (priority 2003, published 2006).

Experiments:
HCT116 p53+/+ cells = assay: Apoptosis (annexin V FACS, DNA laddering, phase contrast) in HCT116 p53+/+ cells; assay type: cell-based, human
HCT116 p53−/− cells = assay: Apoptosis (annexin V FACS, DNA laddering, phase contrast) in HCT116 p53−/− cells; assay type: cell-based, human; conditions: sulindac sulphide 120 μM, 24 and 48 hr
Procedure: HCT116 clones were cultured in DMEM with 10% FCS. All the cell clones were cultured with penicillin 100 units ml^−1 and streptomycin 100 μg ml^−1 at 37° C. in 5% CO2 in air. Other human colorectal cancer cells lines, also defective for DNA mismatch repair (see Branch et al., 1995), were:- LoVo and RKO (p53 wild type); DLD1, LS174T, SW48 and HT29 (all p53 mutant). For transfection the cells were trypsinised and sub-cultured into 6 well plates (10 cm^2) without antibiotics, 1.5×10^5 cells per well. Selected 21-nucleotide RNAs were synthesised and BPLC purified (MWG; Germany) and annealed into siRNA duplexes according to the instructions supplied. 24 h after sub-culture the cells were transfected with siRNA formulated into liposomes (Oligofectamine, Life Technologies) according to the manufacturer's instructions. […] The final volume of culture medium was 1.5 ml per well. Cells were harvested for analysis at various times thereafter as indicated in the results. Each experiment with HCT116 cells was carried out four or more times. Transfection efficiencies were established by transfecting with liposomes containing FITC-dextran (Jiang and Milner, 2002). […]
Cell growth curves were determined by cell counting. […] The fixed cells were pelleted, washed in PBS and resuspended in PBS containing 0.1 μg/ml propidium iodide with 200 U/ml RNase A and analysed by FACS. […]

Compound | apoptosis by agents that activate p53 (HCT116 p53+/+ cells; HCT116 cells, Zhang et al., 2000 and results not shown) | apoptosis induced by treatment with sulindac (HCT116 p53+/+ cells; p53+/+ cells, sulindac sulphide 120 μM, 24 and 48 hr) | apoptosis induced by treatment with sulindac (HCT116 p53−/− cells)
O=c1[nH]cc(F)c(=O)[nH]1 [5′ FU, 5-fluorouracil] | induced |  | 
CC1=C(CC(=O)O)c2cc(F)ccc2/C1=C\c1ccc([S+](C)[O-])cc1 (stereo not drawn) [Sulindac, sulindac] |  | induced apoptosis | induced apoptosis
